# Reference: article PMC8667043, “First-in-Class Inhibitors of the Ribosomal Oxygenase MINA53” (Journal of Medicinal Chemistry, 2021)
# Key:
# HL-60 = experiment: WST-1 cell proliferation assay; assay type: cell-based; settings: Homo sapiens, APL, WST-1, 48 h, read-out: IC50 antiproliferative effect, HL-60
# Experimental: (§1) The effect of compounds on cell proliferation of different leukemia and lymphoma cell lines OCI-AML3 (DSMZ ACC-582), IMS-M2 (a gift from Professor B. Falini, University of Perugia), OCI-AML2 (DSMZ, ACC-99), MV4–11 (ATCC, CRL-9591), Kasumi-1 (ATCC, CRL-2724), Karpass299 (DSMZ, ACC-31), U937 (ATCC, CRL1593.2), HL-60 (ATCC, CCL-240), and NB4 (DSMZ, ACC-207) was evaluated using the WST-1 assay (Roche Diagnostic GmbH Germany). The cells were plated, in triplicate, in 384-viewplate (Perkin Elmer) at a density of 5 × 10^3 cells/well in a final volume of 22.5 μL. The cells were incubated with increasing concentrations of compounds for 48 h at 37 °C, 5% CO2, then 2.5 μL of WST-1 reagent was added to each well for 1 h. For each cell line, dose–response curves were analyzed as nonlinear regression curves using GraphPad Prism (GraphPad Software Inc.) to obtain IC50 values.
# IMS-M2 = experiment: WST-1 cell proliferation assay; assay type: cell-based; settings: AML, WST-1, 48 h, read-out: IC50 antiproliferative effect, IMS-M2
# Experimental: as §1
# Karpass299 = experiment: WST-1 cell proliferation assay; assay type: cell-based; settings: ALCL; WST-1, 48 h; read-out: IC50 antiproliferative effect, Karpass299
# Experimental: as §1
# Kasumi-1 = experiment: WST-1 cell proliferation assay; assay type: cell-based; settings: Homo sapiens, AML, WST-1, 48 h, read-out: IC50 antiproliferative effect, Kasumi-1
# Experimental: as §1
# MV4-11 = experiment: WST-1 cell proliferation assay; assay type: cell-based; settings: Homo sapiens, AML, WST-1, 48 h, read-out: IC50 antiproliferative effect, MV4-11
# Experimental: as §1
# NB4 = experiment: WST-1 cell proliferation assay; assay type: cell-based; settings: Homo sapiens, NB-4; APL; WST-1, 48 h; read-out: IC50 antiproliferative effect, NB4
# Experimental: as §1
# OCI-AML2 = experiment: WST-1 cell proliferation assay; assay type: cell-based; settings: Homo sapiens, AML, WST-1, 48 h, read-out: IC50 antiproliferative effect, OCI-AML2
# Experimental: as §1
# OCI-AML3 = experiment: WST-1 cell proliferation assay; assay type: cell-based; settings: Homo sapiens, OCI-AML-3, WST-1, 48 h, read-out: IC50 antiproliferative effect, OCI-AML3
# Experimental: as §1
# U937 = experiment: WST-1 cell proliferation assay; assay type: cell-based; settings: Homo sapiens, U-937; AML; WST-1, 48 h; read-out: IC50 antiproliferative effect, U937
# Experimental: as §1
# HeLa cervical carcinoma = experiment: MTT cell viability assay; assay type: cell-based; settings: 72, 96, 120 h
# Experimental: Human commercially available established cancer cell lines HT-29 colon carcinoma (ATCC, HTB-38), U-87MG glioblastoma (ATCC, HTB-14), and MNK-45 gastric cancer (a gift from Dr. M. Broggini, Mario Negri Institute) were cultured in RPMI medium (Euroclone, Milan, IT) supplemented with 10% inactivated fetal bovine serum (HyClone, Thermo Scientific, South Logan, UT), 1% L-glutamine (Euroclone), and 100 μg/mL penicillin/streptomycin (Euroclone). HEK293T and HeLa cells were cultured in Dulbecco’s Modified Eagle Medium (DMEM, Gibco) supplemented with 10% (v/v) fetal bovine serum (FBS, Sigma) and 100 international units/mL (IU/mL) penicillin and 100 μg/mL streptomycin (Gibco). The cells were routinely tested for mycoplasma contamination and STR-authenticated.
# Twenty-four hours following seeding, exponentially growing cells were treated with the different compounds at concentrations ranging from 10 to 100 μM for 72–120 h. Aqueous DMSO (0.5%, v/v) was used as a control (untreated). Cell viability was determined by the 3-(4,5-dimethylthiazol-2-yl)-2,5-diphenyltetrazolium bromide (MTT) colorimetric assay (Sigma-Aldrich). In summary, exponentially growing cancer cells were seeded in sextuplicate in 96-well culture plates (1.5 × 10^3 cells/well). After 24 h, the compounds were added at concentrations ranging from 10 to 100 μM. The effect of compounds on cancer cell proliferation was assessed by measuring the MTT dye absorbance of the cells as reported.[52] […] The effect of different compounds or combinations (drug concentration ratio 1:20, doxorubicin: compound) on U-87MG cancer cell viability was assessed by measuring the MTT dye absorbance of cells. The interaction between doxorubicin (Doxo) and different compounds was evaluated based on the combination index (CI) using the CI equation through CalcuSyn software (Biosoft, Cambridge, U.K.). […]
# Figure S17. Antiproliferative effects of M INA53 inhibitors on HeLa (A) and HEK293T (B) cells as determined by the MTT method after exposure for 72, 96, and 120 h to the negative control 1, and the MINA53 inhibitors 9 and 10. […]
# U-87MG cells [1] = experiment: MTT cell viability, alone or in combination with doxorubicin; combination index; assay type: cell-based, human; settings: for cell viability reduction in cotreatment with doxorubicin: 1 μM doxorubicin + 20 μM compound; for cell viability reduction in cotreatment with doxorubicin / cell viability, single compound treatment / sensitization of U-87MG cells to doxorubicin: 24 h; for combination index value with doxorubicin: less than 1 synergistic, higher than 1 antagonist
# Experimental: Twenty-four hours following seeding, exponentially growing cells were treated with the different compounds at concentrations ranging from 10 to 100 μM for 72–120 h. Aqueous DMSO (0.5%, v/v) was used as a control (untreated). Cell viability was determined by the 3-(4,5-dimethylthiazol-2-yl)-2,5-diphenyltetrazolium bromide (MTT) colorimetric assay (Sigma-Aldrich). In summary, exponentially growing cancer cells were seeded in sextuplicate in 96-well culture plates (1.5 × 10^3 cells/well). After 24 h, the compounds were added at concentrations ranging from 10 to 100 μM. The effect of compounds on cancer cell proliferation was assessed by measuring the MTT dye absorbance of the cells as reported.[52] For combination treatments, the cells were treated with each of three compounds, either alone or in combination with doxorubicin. In particular, U-87MG cells were treated with doxorubicin alone or in combination with different MINA53 inhibitors for 24 h. The effect of different compounds or combinations (drug concentration ratio 1:20, doxorubicin: compound) on U-87MG cancer cell viability was assessed by measuring the MTT dye absorbance of cells. The interaction between doxorubicin (Doxo) and different compounds was evaluated based on the combination index (CI) using the CI equation through CalcuSyn software (Biosoft, Cambridge, U.K.). Synergism CI < 0.9, additivity 0.9 < CI < 1.1, antagonism CI > 1.1.
# U-87MG cells [2] = experiment: Flow cytometric analysis of cell cycle distribution and Sub-G1 peak (PI staining); assay type: cell-based, human; settings: 24 h; for percentage of apoptotic cells (Sub-G1), with doxorubicin: 10 μM compound + doxorubicin 0.5 μM; for accumulation of cells in the G2/M phase of the cell cycle / percentage of apoptotic cells (Sub-G1), compound alone: 10 μM
# Experimental: Cell cycle distribution and apoptosis were assayed by staining floating and adherent cells with propidium iodide ([…] RNase A and 20 μg/mL propidium iodide) for 45 min. Flow cytometric analyses were performed using Epics XL apparatus (Beckman Coulter). Ten thousand events were collected from each sample, and data were processed using Flowing software.
SMILES,IC50 (HL-60),IC50 (IMS-M2),IC50 (Karpass299),IC50 (Kasumi-1),IC50 (MV4-11),IC50 (NB4),IC50 (OCI-AML2),IC50 (OCI-AML3),IC50 (U937),"effect on cell viability, HeLa (HeLa cervical carcinoma)",cell viability reduction in cotreatment with doxorubicin (U-87MG cells [1]),"cell viability, single compound treatment (U-87MG cells [1])",sensitization of U-87MG cells to doxorubicin (U-87MG cells [1]),combination index value with doxorubicin (U-87MG cells [1]),"percentage of apoptotic cells (Sub-G1), with doxorubicin (U-87MG cells [2])",accumulation of cells in the G2/M phase of the cell cycle (U-87MG cells [2]),"percentage of apoptotic cells (Sub-G1), compound alone (U-87MG cells [2])"
"O=C(O)c1cnc(SCCc2ccccc2)[nH]c1=O [compound 9, 2-(Phenethylthio)-3,4-dihydro-4-oxopyrimidine-5-carboxylic Acid]",73 ± 3 µM,> 100 µM,> 100 µM,> 100 µM,> 100 µM,91 ± 3 µM,> 100 µM,> 100 µM,> 100 µM,sensitive,around 75%,reduced cell viability in a dose-dependent manner,dose-dependent sensitization,less than 1,about 60%,induced accumulation of cells in the G2/M phase,about 30%
"O=C(O)c1cnc(SCCCc2ccccc2)[nH]c1=O [compound 10, 2-((3-Phenylpropyl)thio)-3,4-dihydro-4-oxopyrimidine-5-carboxylic Acid]",14 ± 2 µM,> 100 µM,> 100 µM,> 100 µM,> 100 µM,94 ± 4 µM,> 100 µM,> 100 µM,> 100 µM,sensitive,around 75%,reduced cell viability in a dose-dependent manner,dose-dependent sensitization,less than 1,about 60%,induced accumulation of cells in the G2/M phase,about 30%
O=C(O)c1c[nH]c(=S)[nH]c1=O [compound 1],> 100 µM,> 100 µM,> 100 µM,> 100 µM,> 100 µM,> 100 µM,> 100 µM,> 100 µM,> 100 µM,no effect,,,,higher than 1,,not,
